# Measured values taken from patent publication US20140315886A1, “QUINAZOLINES AS THERAPEUTIC COMPOUNDS AND RELATED METHODS OF USE” (OTSUKA PHARMACEUTICAL CO., LTD., priority 2011, published 2014).
# Molecular target: T1, purified STEP46 enzyme (Homo sapiens, UniProt P54829)
# T1 sequence (P54829 197-565 limits assumed): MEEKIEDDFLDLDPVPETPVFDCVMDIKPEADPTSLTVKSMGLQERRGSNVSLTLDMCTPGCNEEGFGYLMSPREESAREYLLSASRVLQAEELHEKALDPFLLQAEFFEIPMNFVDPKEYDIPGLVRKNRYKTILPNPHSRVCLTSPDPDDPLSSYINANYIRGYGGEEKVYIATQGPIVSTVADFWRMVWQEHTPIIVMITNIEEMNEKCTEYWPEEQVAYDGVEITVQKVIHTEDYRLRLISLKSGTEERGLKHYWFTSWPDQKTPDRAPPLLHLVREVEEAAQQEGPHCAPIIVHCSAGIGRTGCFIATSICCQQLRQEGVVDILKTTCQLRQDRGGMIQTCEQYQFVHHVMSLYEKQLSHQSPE
# Assay: STEP46 biochemical assay (DiFMUP fluorescence phosphatase assay)
# Conditions: DiFMUP 10 μM, read-out: STEP IC50
# Summary of the method: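 Purified human STEP46 preincubated 30 min at room temperature with compounds in Hepes/DTT/Brij35 buffer (2% DMSO final), then reacted with 10 μM DiFMUP for 90 min at 27°C; fluorescence read at 360/460 nm. IC50 from four-parameter fit; activation shown as negative % inhibition at 25, 50, 100 uM.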
row,SMILES,IC50 [µM]
1,CNc1nc(-c2cccnc2)nc2cc(F)c(-c3cc(F)cc(F)c3)cc12 [Compound 588],1 to 10
2,CNc1nc(-c2cccnc2)nc2ccc(-c3c(F)cc(F)cc3F)cc12 [Compound 457],1 to 10
3,CNc1nc(-c2cccnc2)nc2c(-c3cc(F)cc(F)c3)ccc(OC)c12 [Compound 491],1 to 10
4,Fc1ccc(-c2ccc3c(N4CCc5cc(Cl)ccc54)nc(-c4cccnc4)nc3c2)cc1 [Compound 97],1 to 10
5,CNc1nc(-c2cccnc2)nc2c(F)c(-c3ccco3)ccc12 [Compound 524],1 to 10
6,CNc1nc(-c2cccnc2)nc2c(F)c(-c3cccc(C)c3)ccc12 [Compound 525],1 to 10
7,COc1ccc2nc(-c3cccnc3)nc(Nc3ccc(F)nc3)c2c1 [Compound 35],1 to 10
8,Clc1ccc2c(c1)CCN2c1nc(-c2cccnc2)nc2cc(-c3ccncc3)ccc12 [Compound 100],1 to 10
9,Fc1ccc(-c2ccc3nc(-c4cccnc4)nc(N4CC(n5cccn5)C4)c3c2)c(F)c1 [Compound 420],> 10
10,CNc1nc(-c2cccnc2)nc2ccc(-c3cc4[nH]c(=O)oc4cc3F)cc12 [Compound 477],< 1
11,Clc1ccc2c(c1)CCN2c1nc(-c2cccnc2)nc2ccc(-c3ccc4c(c3)OCO4)cc12 [Compound 76],1 to 10
12,CC(Nc1nc(-c2cccnc2)nc2ccc(-c3cc(F)cc(F)c3)cc12)c1ccccc1 (stereo not shown) [Compound 349],1 to 10
13,CNc1nc(-c2cccnc2)nc2cc(F)c(-c3ccccc3OC)cc12 [Compound 593],> 10
14,CC(Nc1nc(-c2cccnc2)nc2cc(-c3ccccc3F)ccc12)c1ccccn1 (stereo not shown) [Compound 371],< 1
15,CNc1nc(-c2cccnc2)nc2cc(C)c(-c3ccc(F)c(OC)c3)cc12 [Compound 304],> 10
16,CNc1nc(-c2cccnc2)nc2cc(-c3cccc(OC)c3F)ccc12 [Compound 215],1 to 10
17,Clc1ccc2c(c1)CCN2c1nc(-c2cccnc2)nc2cc(-c3ccccc3Cl)ccc12 [Compound 111],> 10
18,Fc1ccc(-c2ccc3nc(-c4cccnc4)nc(N4CCC4)c3c2)c(F)c1 [Compound 411],1 to 10
19,CNc1nc(-c2cccnc2)nc2c(OC)cc(-c3ccccc3C#N)cc12 [Compound 205],1 to 10
20,Fc1ccc(-c2ccc3c(N4CCc5ccccc54)nc(-c4cccnc4)nc3c2)c(F)c1 [Compound 103],1 to 10
21,CNc1nc(-c2cccnc2)nc2ccc(-c3ccc4c(c3)oc(=O)n4C)cc12 [Compound 470],< 1
22,CNc1nc(-c2cccnc2)nc2cc(F)c(-c3ccc(F)c(F)c3)cc12 [Compound 591],< 1
23,Fc1ccc(-c2ccc3nc(-c4cccnc4)nc(N4CC(F)(F)C4)c3c2)c(F)c1 [Compound 415],> 10
24,CNc1nc(-c2cccnc2)nc2c(F)c(-c3ccc(C#N)cc3)ccc12 [Compound 512],< 1
25,CNc1nc(-c2cccnc2)nc2ccc(-c3cc(Cl)ccc3F)cc12 [Compound 240],1 to 10

row,SMILES,IC50 [µM]
1,COc1ccc(-c2ccc3nc(-c4cccnc4)nc(NCc4ccccn4)c3c2)cc1 [Compound 344],1 to 10
2,CNc1nc(-c2cccnc2)nc2cc(C)c(-c3cccc(F)c3)cc12 [Compound 299],1 to 10
3,CNc1nc(-c2cccnc2)nc2c(F)c(-c3ccc(F)c(F)c3)ccc12 [Compound 517],1 to 10
4,CNc1nc(-c2cccnc2)nc2cc(-c3cc(F)cc(OCCOC)c3)ccc12 [Compound 144],1 to 10
5,CNc1nc(-c2cccnc2)nc2c(F)c(-c3ccc(OC)cc3)ccc12 [Compound 518],1 to 10
6,CNc1nc(-c2cnccn2)nc2cc(-c3ccc(F)cc3)ccc12 [Compound 393],1 to 10
7,CNc1nc(-c2cccnc2)nc2c(OC)cc(-c3ccc(F)c(F)c3)cc12 [Compound 255],1 to 10
8,CNc1nc(-c2cccnc2)nc2c(OC)cc(-c3ccc(F)cc3F)cc12 [Compound 195],< 1
9,CNc1nc(-c2cccnc2)nc2c(F)c(-c3csc4ccccc34)ccc12 [Compound 537],1 to 10
10,CNc1nc(-c2cccnc2)nc2ccc(-c3ccc(S(C)(=O)=O)c(C(F)(F)F)c3)cc12 [Compound 199],1 to 10
11,CNc1nc(-c2cccnc2)nc2cc(-c3cc(F)cc(F)c3)c(F)cc12 [Compound 555],< 1
12,CNc1nc(-c2cccnc2)nc2c(F)cc(-c3cccc(C#N)c3)cc12 [Compound 570],< 1
13,Fc1cccc(-c2ccc3nc(-c4ccnnc4)nc(NCc4ccccn4)c3c2)c1F [Compound 333],> 10
14,"CNc1nc(-c2cccnc2)nc2ccc(-c3ccc4sc(C)nc4c3)cc12 [Compound 169, N-methyl-6-(2-methylbenzo[d]thiazol-5-yl)-2-(pyridin-3-yl)quinazolin-4-amine, 2HCl]",< 1
15,COc1ccc2nc(-c3cccnc3)nc(Nc3cc(F)ccn3)c2c1 [Compound 31],1 to 10
16,NC(=O)C1CN(c2nc(-c3cccnc3)nc3ccc(-c4ccc(F)cc4F)cc23)C1 [Compound 419],1 to 10
17,O=[N+]([O-])c1ccc2c(c1)CCN2c1nc(-c2cccnc2)nc2cc(-c3ccc(F)cc3F)ccc12 [Compound 104],< 1
18,Fc1cncc(Nc2nc(-c3cccnc3)nc3cc(Cl)ccc23)c1 [Compound 50],1 to 10
19,CNc1nc(-c2cccnc2)nc2c(-c3cc(F)ccc3F)ccc(OC)c12 [Compound 497],1 to 10
20,COc1ccc2c(Nc3ccc(C)cn3)nc(-c3cccnc3)nc2c1 [Compound 55],1 to 10
21,COc1ccc2nc(-c3cccnc3)nc(N3CCc4cc(Br)ccc43)c2c1 [Compound 6],> 10
22,Fc1ccc(-c2ccc3nc(-c4cccnc4)nc(NCCc4ccccn4)c3c2)cc1 [Compound 337],> 10
23,CNc1nc(-c2cccnc2)nc2c(F)cc(-c3c(F)cccc3F)cc12 [Compound 575],1 to 10
24,CNc1nc(-c2cccnc2)nc2cc(OC)c(-c3cccc(F)c3F)cc12 [Compound 230],1 to 10
